SMILES strings stand for the structures. Converted amounts (≈) assume the structure as drawn. Read-outs that look alike come from different tables or passages of the source.

In general, IC50 refers to the midpoint of a concentration-inhibition curve. Higher therefore signals weaker potency in that assay. As a reminder, the melting point is the temperature of the solid-liquid transition. A word on the % Inhibition: it is the share of the control response that was lost under treatment. Higher therefore signals a strong effect.

Data set [1] is described as follows: Nitric oxide scavenging assay (Garrat method, Griess reagent). As for the experimental part: The literature contains reports on the antioxidant activities of 6-flourobenzothiazole-substituted triazoles using DPPH assays. […] Having a phenyl ring on the pyrozoline increased the antioxidant activity in the ferric ion reduction and DPPH solution methods. […] Synthesized compounds with their calculated IC50 values are listed in Table 5 (Figure 8 and Figure 9).
The activity of newly synthesized benzothiazole derivatives was determined using the Garrat method. Griess reported the Garrat method which is followed by a diazotization reaction. Under acidic conditions, this method utilizes sodium nitroprusside as the source of nitric oxide, sulfanilamide and N-1-naphthylethylenediamine dihydrochloride to detect NO2^−, produced at the expense of nitric oxide. A known amount of tested compounds 3a–3h was dissolved in sodium nitroprusside solution (20 mM, 100 µL) and then the volume was made up to 1000 µL with phosphate buffer (200 mM, pH 7.4). This solution was incubated for 2 h at 37 °C and Griess reagent (100 µL) was added. This solution was stored for 20 min at room temperature. At 528 nm, optical density of this colored solution was observed. For positive control, ascorbic acid was used.
On the technique in general: The Griess reaction detects nitrite, a stable product of nitric oxide.

For data set [2], the system named is red blood cells. The format is cell-based. As for the experimental part: The haemolytic activity of benzothiazole derivatives has already been reported. […] Benzothiazole compounds with halogen substitutions show cytotoxicity towards cancer cell lines. The haemolytic activity of the newly synthesized benzothiazole derivatives were studied against Triton X-100 by a reported method.
Haemolytic activity of newly synthesized benzothiazole derivatives 3a–3h was determined using a reported method. Solutions of compounds were prepared at concentrations of 1 mg/mL in 10% DMSO with 90% water Heparinized human fresh blood (3 mL) was used that was homogeneously mixed and added into a 15 mL sterile Falcon tube. It was centrifuged for 5 min and the supernatant was removed. Chilled sterile isotonic phosphate buffer saline solution (5 mL, 7.4 pH) at 4 °C was used three times. Washed red blood cells were suspended in chilled RBS (20 mL). A haemacytometer was used for counting erythrocytes. For each assay 7.068 × 10^8 red blood cells per mL count were maintained and then diluted blood cells (180 µL) were added to the test compound (20 µL) and suspended in Eppendorf tubes. It was incubated for 35 min at 37 °C then the tubes were kept in an ice bath for 5 min and centrifuged again for 5 min. After centrifugation, the obtained supernatant was collected carefully and diluted with 900 µL of chilled PBS. All these tubes were kept in ice bath and solution (200 µL) was added into 96 well plates from each Eppendrof tube. For each essay, Triton X-100 (0.1%) was taken as positive control. For negative control, phosphate buffer was used. A microplate reader was used for determining the absorbance at 576 nm.

Data set [3] has as its target urease (Canavalia ensiformis, UniProt P07374). In words: biochemical. Conditions: for IC50: urease inhibition, in vitro; for inhibition at 15 µg/mL: read-out: % Inhibition at 15 µg/mL, 15 µg/mL; for inhibition at 15 µg/mL / inhibition at 40 µg/mL / % Inhibition at 40 µg/mL: mean ± SD of three measurements; for inhibition at 40 µg/mL: read-out: % Inhibition at 40 µg/mL, 40 µg/mL. The format is biochemical.

The subject of data set [4] is S. dysenteriae. As to the kind of experiment: Antibacterial activity, 96 well plate method. The format is cell-based. Conditions: Shigella dysenteriae, read-out: % Activity at 40 μg/mL, S. dysenteriae. As for the experimental part:
The synthesized benzothiazole derivatives were examined for their anti-bacterial activity against two Gram positive-bacterial strains (Baccilus subtiles, Staphylococcus aureus) and four Gram-negative strains (Escherichia coli, Psuedomonas aeruginosa, Shigella dysenteriae, Salmonella typhae) at concentrations of 40 and 80 μg/mL (Table 7 and Table 8). It was concluded that the potent antibacterial activities of these compounds might be due to electron withdrawing groups present on the aryl moiety in N-protected benzothiazole molecule.
These newly benzothiazole derivatives were tested for their antibacterial activities against two Gram positive strains (Baccilus subtilis, Staphylococcus aureus) and four Gram negative strains (Escherichia coli, Psuedomonas aeruginosa, Shigella dysenteriae and Salmonella typhae) using a reported protocol. Streptomycin was used as positive control. The 96 well plate method was optimized for measuring the antibacterial activities of these compounds. In each well, sterilized broth (175 µL) was added and inoculated with glycerol stock (5 µL) of a specific bacterial strain. The initial absorbance was observed between 0.12–0.19. […] After a certain waiting time (12 h), test sample (20 µL) was added to the pre-determined wells. […] The difference in absorbance values were observed and were used as an index of bacterial growth. […]

Where [5] appears, read: human, 35 min, 0.1 mg/mL, pH 7.4.

Sequence of urease (P07374 whole entry, looked up): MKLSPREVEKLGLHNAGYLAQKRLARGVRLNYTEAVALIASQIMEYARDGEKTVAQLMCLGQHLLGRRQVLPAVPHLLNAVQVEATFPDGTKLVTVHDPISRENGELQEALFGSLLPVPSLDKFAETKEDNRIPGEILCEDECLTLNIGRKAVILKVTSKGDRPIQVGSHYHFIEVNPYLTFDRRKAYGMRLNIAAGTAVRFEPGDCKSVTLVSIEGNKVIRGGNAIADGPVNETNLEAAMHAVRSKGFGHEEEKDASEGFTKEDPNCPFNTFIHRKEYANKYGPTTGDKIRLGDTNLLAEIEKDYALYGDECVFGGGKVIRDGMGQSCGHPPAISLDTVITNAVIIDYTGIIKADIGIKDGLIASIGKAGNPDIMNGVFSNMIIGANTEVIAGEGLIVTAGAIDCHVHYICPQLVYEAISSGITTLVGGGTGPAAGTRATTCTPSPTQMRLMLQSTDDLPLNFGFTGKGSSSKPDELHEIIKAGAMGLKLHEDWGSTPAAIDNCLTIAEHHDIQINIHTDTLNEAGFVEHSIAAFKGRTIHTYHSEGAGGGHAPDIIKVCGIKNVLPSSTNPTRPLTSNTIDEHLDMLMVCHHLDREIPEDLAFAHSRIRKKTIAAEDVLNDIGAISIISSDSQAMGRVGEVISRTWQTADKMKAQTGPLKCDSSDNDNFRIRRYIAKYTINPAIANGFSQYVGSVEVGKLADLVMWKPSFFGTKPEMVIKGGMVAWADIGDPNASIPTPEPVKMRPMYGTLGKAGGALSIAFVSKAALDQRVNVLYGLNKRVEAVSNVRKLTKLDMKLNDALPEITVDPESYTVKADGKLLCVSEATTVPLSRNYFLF

For the compound `O=C1O[C@H]([C@@H](O)CO)C(O)=C1O` [Ascorbic acid, reference compound], in data set [1], the “IC50 (µg/mL) nitric oxide scavenging” value is listed as 50.43 µg/mL (≈ 286 µM).

With `CC(=O)Nc1nc2ccc(Br)cc2s1` [Compound 2, N-(6-bromobenzo[d]thiazol-2-yl)acetamide], in data set [2] (compound solutions 1 mg/mL in 10% DMSO, human RBC, 35 min at 37 °C, mean ± SD of three), the “% lysis of RBC” value is recorded as 44.628 ± 0.369%.

Consider `CC(=O)Nc1nc2ccc(-c3ccccc3)cc2s1` [Compound 3a, N-(6-Phenylbenzo[d]thiazol-2-yl)acetamide], for which the “IC50 (µg/mL) nitric oxide scavenging” value in data set [1] is given as 32.7 µg/mL (≈ 122 µM). The 50% inhibitory concentration (IC50) in data set [3] (IC50 (µg/mL)) was 69.3 µM. Moreover, in data set [3], the inhibition at 15 µg/mL is 44 ± 0.12% and the inhibition at 40 µg/mL turned out to be 83.9 ± 0.12%. Further, the “% lysis of RBC” value in data set [2] (setting [5]) is 42.123 ± 0.479%.

For the compound `CC(=O)Nc1nc2ccc(-c3ccc(C)cc3)cc2s1` [Compound 3b, N-(6-(p-Tolyl)benzo[d]thiazol-2-yl)acetamide], the melting point was 205 to 207 °C. For the same compound, in data set [1], the “IC50 (µg/mL) nitric oxide scavenging” value is given as 26.4 µg/mL (≈ 93.5 µM). The 50% inhibitory concentration (IC50) in data set [3] (IC50 (µg/mL)) is 58.4 µM. In addition, in data set [3], the inhibition at 15 µg/mL came to 47 ± 0.11% and the inhibition at 40 µg/mL was 90.51 ± 0.19%. Further, the “% lysis of RBC” value in data set [2] (setting [5]) amounted to 44.179 ± 0.157%.

Take `CC(=O)Nc1nc2ccc(-c3cc(C(F)(F)F)cc(C(F)(F)F)c3)cc2s1` [Compound 3c, N-(6-(3,5-bis(Trifluoromethyl)phenyl)benzo[d]thiazol-2-yl)acetamide]: in data set [3], the “% Inhibition at 40 µg/mL” value worked out at 90.07 ± 0.20%, the inhibition at 15 µg/mL was 46.09 ± 0.1% and the inhibition at 40 µg/mL was determined as 90.33 ± 0.2%. Also, in data set [3] (IC50 (µg/mL)), the concentration for half-maximal inhibition (IC50) is 42.5 µM. In data set [2] (setting [5]), the “% lysis of RBC” value was determined as 47.089 ± 0.130%.

As for `COc1ccc(-c2ccc3nc(NC(C)=O)sc3c2)cc1` [Compound 3d, N-(6-(4-Methoxyphenyl)benzo[d]thiazol-2-yl)acetamide], the melting point fell in the range of 218 to 220 °C. For the same compound, in data set [3] (IC50 (µg/mL)), inhibition was half-maximal at 57 µM (IC50). Moreover, in data set [3], the inhibition at 15 µg/mL came out at 46.5 ± 0.15% and the inhibition at 40 µg/mL came out at 88.5 ± 0.24%. Also, in data set [2] (setting [5]), the “% lysis of RBC” value was 44.078 ± 0.279%.

As to `CC(=O)Nc1nc2ccc(-c3ccc(C)s3)cc2s1` [Compound 3e, N-(6-(5-Methylthiophen-2-yl)benzo[d]thiazol-2-yl)acetamide], in data set [1], the “IC50 (µg/mL) nitric oxide scavenging” value came to 37.1 µg/mL (≈ 129 µM). Besides, the IC50 in data set [3] (IC50 (µg/mL)) is 59.6 µM. In addition, in data set [3], the inhibition at 15 µg/mL was determined as 46 ± 0.12% and the inhibition at 40 µg/mL was determined as 87 ± 0.26%. In addition, the “% lysis of RBC” value in data set [2] (setting [5]) turned out to be 44.425 ± 0.181%.

With `CC(=O)Nc1nc2ccc(-c3cc(C#N)cc(C(F)(F)F)c3)cc2s1` [Compound 3f, N-(6-(3-Cyano-5-(trifluoromethyl)phenyl)benzo[d]thiazol-2-yl)acetamide], the “nitric oxide scavenging activity (in words)” value in data set [1] is “inactive”. Also, half-maximal inhibition in data set [3] (IC50 (µg/mL)) (IC50) was put at 53.1 µM. Further, in data set [3], the inhibition at 15 µg/mL amounted to 42 ± 0.12% and the inhibition at 40 µg/mL worked out at 87.5 ± 0.26%. Moreover, the “% lysis of RBC” value in data set [2] (setting [5]) is reported as 44.063 ± 0.314%.

In turn, `CC(=O)Nc1nc2ccc(-c3ccc(F)c(Cl)c3)cc2s1` [Compound 3g, N-(6-(3-Chloro-4-fluorophenyl)benzo[d]thiazol-2-yl)acetamide] had a melting point of 166 to 167 °C. Besides, in data set [1], the “IC50 (µg/mL) nitric oxide scavenging” value amounted to 39.1 µg/mL (≈ 122 µM). Further, the half-inhibitory concentration (IC50) in data set [3] (IC50 (µg/mL)) is 58.9 µM. For the same compound, in data set [3], the inhibition at 15 µg/mL was 42 ± 0.14% and the inhibition at 40 µg/mL worked out at 87 ± 0.26%. The “% lysis of RBC” value in data set [2] (setting [5]) was found to be 43.614 ± 0.157%.

Compound `CC(=O)Nc1nc2ccc(-c3cc(C)cc(C)c3)cc2s1` [Compound 3h, N-(6-(3,5-Dimethylphenyl)benzo[d]thiazol-2-yl)acetamide] had a melting point of 205 to 207 °C. Also, the “IC50 (µg/mL) nitric oxide scavenging” value in data set [1] is given as 32.3 µg/mL (≈ 109 µM). Also, in data set [3], the “% Inhibition at 40 µg/mL” value worked out at 90.33 ± 0.20%, the inhibition at 15 µg/mL came to 43.59 ± 0.13% and the inhibition at 40 µg/mL is 90.07 ± 0.2%. Further, the IC50 in data set [3] (IC50 (µg/mL)) was 62.1 µM. The “% lysis of RBC” value in data set [2] (setting [5]) is 40.661 ± 0.216%. The inhibition at 40 µg/mL in data set [4] turned out to be 3.51 ± 0.43%.

Consider `NC(N)=S` [Thiourea, reference compound], for which the “IC50” value in data set [3] worked out at 23.1 µg/mL.

The values above are taken from article PMC6273329, “Synthesis of N-(6-Arylbenzo[d]thiazole-2-acetamide Derivatives and Their Biological Activities: An Experimental and Computational Approach” (Molecules, 2016).
